Source: patent US20090018194A1, “Use of antimicrobial agents derived from alliaceous plants for the prevention and control of crop diseases, post-harvest rot and as environmental disinifectant products” (DMC Research Center, S.L., priority 2007, published 2009)

Assays:
Leveillula taurica = experiment: control of powdery mildew in peppers grown in greenhouses; type: in vivo; details: doses of 1000 and 2000 ppm; peppers in greenhouse; reference Ciproconazol/Triadimenol
From the text: Some of these tests were especially significant, such as the result against powdery mildew in peppers grown in greenhouses in Almeria. The relevance of the data obtained is based on the scarcity of effective and non-synthetic systems that control this disease (caused by Leveillula taurica).
In the case of this test, spray guns were used, via the greenhouse irrigation system, to apply solutions of 1000 ppm and 2000 ppm of PTS and PTSO, with a nutrient broth volume of 20, 30, 40 l/parcel, depending on the application. These solutions were distributed in parcels of 4 rows, located in the zone of the greenhouse with a greater incidence of powdery mildew, while a reference product was applied in the rest of the warehouse: Ciproconazol (Caddy 10 WG at 10 gr/100 l) for the first and second application, Triadimenol (Bayfidan 25 EC at 25 ml/100 l) for the third application and Ciproconazol/Triadimenol for the final application.

[1] = tested on: Penicillium solitum Wild strain; experiment: agar diffusion test with impregnated cellulose discs; type: cell-based; details: incl. 6 mm disc
R. stolonifer = experiment: disinfection of artificially contaminated containers by drencher; parameters: species or system Rhizopus stolonifer; details: drencher 30 seconds
Protocol: A test of the disinfection of containers (fruit boxes and crates) was conducted in which a level of artificial contamination was created by means of controlled inoculation, with the objective of determining optimum doses of application to achieve a satisfactory disinfection. First the containers (made of wood and plastic) were disinfected with sodium hypochlorite, and they were then artificially contaminated via controlled inoculations with different fungi characteristic of the fruit and vegetable processing sector. For this purpose, isolated wild strains were used which, after sporulation, were collected to create a suspension of mixed spores of various fungi (Penicillium expansum, Penicillium italicum, Penicillium digitarum and Alternario alternata) and, separately in simultaneous tests (as a result of its higher rate of growth and its invasive character), a suspension of Rhizopus stolonifer. […] After this fogging, the containers were allowed to dry. The containers were then sampled to determine the level of initial contamination achieved (by means of contact plates containing Rose Bengal agar). The containers were then treated in a pilot line […]. The hold time of the containers under the showers was 30 seconds, and the test doses were 750 ppm and 1050 ppm for PTS and 2000 ppm and 5000 ppm in the case of PTSO. After exiting the showers, the treated containers were allowed to dry, and were again sampled using contact plates with Rose Bengal agar to determine the final level of contamination. The sampling unit was 3 containers and 3 plates per repetition.

Fusarium spp. [2] = experiment: field tests on affected asparagus, Fusarium spp. in roots; type: in vivo; details: 60 days after application, compared to untreated control
Protocol: (§1) The treatment doses used were 250, 500 and 1000 ppm of both active principles (PT and PTSO), and the initial incidence of the pathogen was compared with its presence 60 days after its application.
(§2) To analyze the growth of the crops infected by Fusarium spp. after the treatments, root and soil samples were taken and tests were performed in the laboratory to investigate the incidence of the pathogen in the roots and soil. The cultivation media used were potato dextrose agar and rose bengal agar (to prevent the invasive character of the Mucoralean fungi).
(§3) The soil analysis was conducted by sequential dilutions of the soils in physiological serum with a subsequent sowing in the above mentioned media. The analysis of the roots was performed after dissection of the infected tissues, which were deposited in triplicate on filter paper located above both media, and their evolution over time was studied.
(§4) The data are expressed as a percentage of elimination and reduction as a function of the treatment dose compared to the untreated control samples.

Fusarium spp. [3] = experiment: field tests on affected asparagus, Fusarium spp. in the soil; type: in vivo; details: for % Reduction / % elimination: soil, 60 days after application, compared to untreated control; for effectiveness of the application (in words): Fusarium spp. in asparagus, disinfection of agricultural soil
Protocol: as §1, §2, §3, §4

[4] = tested on: the most characteristic diseases that affect these crops; experiment: in vivo tests against pre-harvest diseases in various crops (Table 7); details: pre-harvest diseases and pathogens listed in Table 7
Protocol: B. Likewise, numerous tests were conducted “in vivo” to determine the effectiveness of the products for pre- and post-harvest treatments, and also as disinfectant agents for agricultural soils and facilities in the food processing industries.
In post-harvest treatments, tests were conducted in strawberries, citrus fruits, stone fruits and tropical fruits. Tests were also conducted on vegetable plants in a greenhouse (tomatoes, melons, zucchini, peppers, cucumbers and green beans).

Penicillium expansum = experiment: reduction of spores in suspension in absence or presence of organic matter; type: cell-based
From the text: (§5) In addition, under the real conditions of a disinfecting bath for boxes, crates and containers, as well as for the disinfection of rooms and work surfaces, organic material (soil residue, rotten fruit, leaves etc.) is generally present, which can reduce the action of the disinfectant agent. Therefore, the effectiveness of PTS and PTSO has also been assessed in the presence of organic matter on two pathogens that cause post-harvest rot of stone fruit (Penicillium expansum) and citrus fruit (Penicillium digitatum).

Penicillium digitatum = experiment: as above; type: cell-based
From the text: as §5

[5] = tested on: Listeria innocua CECT 4030; experiment: agar diffusion test with impregnated cellulose discs; type: cell-based; details: incl. 6 mm disc
[6] = tested on: Enteroccus faecalis ATCC 29212; experiment: as above; type: cell-based; details: incl. 6 mm disc
[7] = tested on: Salmonella typhimurium ATCC 13311; experiment: as above; type: cell-based; details: incl. 6 mm disc
[8] = PTS 750 ppm 1 min., organic matter Absence, 0 hours
[9] = PTS 750 ppm 1 min., organic matter Absence, 1 hour
[10] = PTS 750 ppm 1 min., organic matter Absence, 2 hours
[11] = PTS 750 ppm 1 min., organic matter Absence, 3 hours
[12] = PTS 750 ppm 1 min., organic matter Presence, 0 hours
[13] = PTS 750 ppm 1 min., organic matter Presence, 1 hour
[14] = PTS 750 ppm 1 min., organic matter Presence, 2 hours
[15] = PTS 750 ppm 1 min., organic matter Presence, 3 hours
[16] = PTSO 2000 ppm 1 min., organic matter Absence, 0 hours
[17] = PTSO 2000 ppm 1 min., organic matter Absence, 1 hour
[18] = PTSO 2000 ppm 1 min., organic matter Absence, 2 hours
[19] = PTSO 2000 ppm 1 min., organic matter Absence, 3 hours
[20] = PTSO 2000 ppm 1 min., organic matter Presence, 0 hours
[21] = PTSO 2000 ppm 1 min., organic matter Presence, 1 hour
[22] = PTSO 2000 ppm 1 min., organic matter Presence, 2 hours
[23] = PTSO 2000 ppm 1 min., organic matter Presence, 3 hours

CCCS[S+]([O-])CCC (centres unmarked) [PTS, Propyl Propyl Thiosulfinate]
control of powdery mildew, as % of the effectiveness of the reference product (Leveillula taurica): 92% | diameter of the microbial inhibition halo ([1]; 60 ppm): 0 mm | diameter of the microbial inhibition halo ([1]; 125 ppm): 11 mm | diameter of the microbial inhibition halo ([1]; 250 ppm): 16 mm | diameter of the microbial inhibition halo ([1]; 500 ppm): 28 mm | diameter of the microbial inhibition halo ([1]; 1000 ppm): 35 mm | Reduction of the population (%) (R. stolonifer; 750 ppm, Plastic container): 100% | Reduction of the population (%) (R. stolonifer; 750 ppm, Wood container): 94% | Reduction of the population (%) (R. stolonifer; 1050 ppm, Plastic container): 99% | Reduction of the population (%) (R. stolonifer; 1050 ppm, Wood container): 100% | % Reduction (Fusarium spp. [2]; 250 ppm): 60% | % elimination (Fusarium spp. [2]; 250 ppm): 0% | % Reduction (Fusarium spp. [2]; 500 ppm): 14% | % elimination (Fusarium spp. [2]; 500 ppm): 57% | % Reduction (Fusarium spp. [2]; 1000 ppm): 13% | % elimination (Fusarium spp. [2]; 1000 ppm): 58% | % Reduction (Fusarium spp. [3]; 250 ppm): 0% | % elimination (Fusarium spp. [3]; 250 ppm): 100% | % Reduction (Fusarium spp. [3]; 500 ppm): 12.5% | % elimination (Fusarium spp. [3]; 500 ppm): 87.5% | % Reduction (Fusarium spp. [3]; 1000 ppm): 0% | % elimination (Fusarium spp. [3]; 1000 ppm): 100% | effectiveness of the application (in words) (Fusarium spp. [3]): highly effective | control capability against the most characteristic diseases of the crops (in words) [4]: high control capability | Reduction of the population (%) (Penicillium expansum; [8]): 68% | Reduction of the population (%) (Penicillium expansum; [9]): 82% | Reduction of the population (%) (Penicillium expansum; [10]): 45% | Reduction of the population (%) (Penicillium expansum; [11]): 68% | Reduction of the population (%) (Penicillium expansum; [12]): 73% | Reduction of the population (%) (Penicillium expansum; [13]): 41% | Reduction of the population (%) (Penicillium expansum; [14]): 36% | Reduction of the population (%) (Penicillium expansum; [15]): 18% | Reduction of the population (%) (Penicillium digitatum; [8]): 100% | Reduction of the population (%) (Penicillium digitatum; [9]): 100% | Reduction of the population (%) (Penicillium digitatum; [10]): 100% | Reduction of the population (%) (Penicillium digitatum; [11]): 100% | Reduction of the population (%) (Penicillium digitatum; [12]): 100% | Reduction of the population (%) (Penicillium digitatum; [13]): 100% | Reduction of the population (%) (Penicillium digitatum; [14]): 100% | Reduction of the population (%) (Penicillium digitatum; [15]): 100% | diameter of the microbial inhibition halo ([5]; 60 ppm): 13 mm | diameter of the microbial inhibition halo ([5]; 125 ppm): 23 mm | diameter of the microbial inhibition halo ([5]; 250 ppm): 32 mm | diameter of the microbial inhibition halo ([5]; 500 ppm): 37 mm | diameter of the microbial inhibition halo ([5]; 1000 ppm): 40 mm | diameter of the microbial inhibition halo ([6]; 60 ppm): 15 mm | diameter of the microbial inhibition halo ([6]; 125 ppm): 22 mm | diameter of the microbial inhibition halo ([6]; 250 ppm): 26 mm | diameter of the microbial inhibition halo ([6]; 500 ppm): 30 mm | diameter of the microbial inhibition halo ([6]; 1000 ppm): 30 mm | diameter of the microbial inhibition halo ([7]; 60 ppm): 11 mm | diameter of the microbial inhibition halo ([7]; 125 ppm): 15 mm | diameter of the microbial inhibition halo ([7]; 250 ppm): 22 mm | diameter of the microbial inhibition halo ([7]; 500 ppm): 23 mm | diameter of the microbial inhibition halo ([7]; 1000 ppm): 25 mm

CCCSS(=O)(=O)CCC [PTSO, Propyl Propyl Thiosulfonate]
control of powdery mildew, as % of the effectiveness of the reference product (Leveillula taurica): slightly lower | diameter of the microbial inhibition halo ([1]; 60 ppm): 0 mm | diameter of the microbial inhibition halo ([1]; 125 ppm): 12 mm | diameter of the microbial inhibition halo ([1]; 250 ppm): 20 mm | diameter of the microbial inhibition halo ([1]; 500 ppm): 30 mm | diameter of the microbial inhibition halo ([1]; 1000 ppm): 40 mm | Reduction of the population (%) (R. stolonifer; 2000 ppm, Plastic container): 100% | Reduction of the population (%) (R. stolonifer; 2000 ppm, Wood container): 96% | Reduction of the population (%) (R. stolonifer; 5000 ppm, Plastic container): 100% | Reduction of the population (%) (R. stolonifer; 5000 ppm, Wood container): 98% | % Reduction (Fusarium spp. [2]; 250 ppm): 25% | % elimination (Fusarium spp. [2]; 250 ppm): 33% | % Reduction (Fusarium spp. [2]; 500 ppm): 14% | % elimination (Fusarium spp. [2]; 500 ppm): 86% | % Reduction (Fusarium spp. [2]; 1000 ppm): 43% | % elimination (Fusarium spp. [2]; 1000 ppm): 57% | % Reduction (Fusarium spp. [3]; 250 ppm): 15% | % elimination (Fusarium spp. [3]; 250 ppm): 85% | % Reduction (Fusarium spp. [3]; 500 ppm): 25% | % elimination (Fusarium spp. [3]; 500 ppm): 75% | % Reduction (Fusarium spp. [3]; 1000 ppm): 0% | % elimination (Fusarium spp. [3]; 1000 ppm): 100% | effectiveness of the application (in words) (Fusarium spp. [3]): highly effective | control capability against the most characteristic diseases of the crops (in words) [4]: high control capability | Reduction of the population (%) (Penicillium expansum; [16]): 100% | Reduction of the population (%) (Penicillium expansum; [17]): 100% | Reduction of the population (%) (Penicillium expansum; [18]): 100% | Reduction of the population (%) (Penicillium expansum; [19]): 100% | Reduction of the population (%) (Penicillium expansum; [20]): 100% | Reduction of the population (%) (Penicillium expansum; [21]): 100% | Reduction of the population (%) (Penicillium expansum; [22]): 100% | Reduction of the population (%) (Penicillium expansum; [23]): 85% | Reduction of the population (%) (Penicillium digitatum; [16]): 100% | Reduction of the population (%) (Penicillium digitatum; [17]): 100% | Reduction of the population (%) (Penicillium digitatum; [18]): 100% | Reduction of the population (%) (Penicillium digitatum; [19]): 100% | Reduction of the population (%) (Penicillium digitatum; [20]): 100% | Reduction of the population (%) (Penicillium digitatum; [21]): 100% | Reduction of the population (%) (Penicillium digitatum; [22]): 100% | Reduction of the population (%) (Penicillium digitatum; [23]): 100% | diameter of the microbial inhibition halo ([5]; 60 ppm): 13 mm | diameter of the microbial inhibition halo ([5]; 125 ppm): 20 mm | diameter of the microbial inhibition halo ([5]; 250 ppm): 35 mm | diameter of the microbial inhibition halo ([5]; 500 ppm): 43 mm | diameter of the microbial inhibition halo ([5]; 1000 ppm): 52 mm | diameter of the microbial inhibition halo ([6]; 60 ppm): 26 mm | diameter of the microbial inhibition halo ([6]; 125 ppm): 33 mm | diameter of the microbial inhibition halo ([6]; 250 ppm): 45 mm | diameter of the microbial inhibition halo ([6]; 500 ppm): 45 mm | diameter of the microbial inhibition halo ([6]; 1000 ppm): 45 mm | diameter of the microbial inhibition halo ([7]; 60 ppm): 16 mm | diameter of the microbial inhibition halo ([7]; 125 ppm): 17 mm | diameter of the microbial inhibition halo ([7]; 250 ppm): 25 mm | diameter of the microbial inhibition halo ([7]; 500 ppm): 25 mm | diameter of the microbial inhibition halo ([7]; 1000 ppm): 27 mm
